Source: article PMC6614837 (Nucleic Acids Research, 2019)
“Also recorded” adds a separate entry of the source.

Experiments:
P protein = molecular target: T1, P protein (Thermotoga maritima, UniProt Q9X1H4); assay: Binding hindrance of the 5′ RNA leader to the P protein (BLI); design: species or system T. maritima; settings: compound 100 μM, 5′ RNA leader 5 μM
T1 construct: GST (cleaved yes); made in house; host or cells: E. coli BL21(DE3)pLysS
T1 sequence (Q9X1H4 1-117): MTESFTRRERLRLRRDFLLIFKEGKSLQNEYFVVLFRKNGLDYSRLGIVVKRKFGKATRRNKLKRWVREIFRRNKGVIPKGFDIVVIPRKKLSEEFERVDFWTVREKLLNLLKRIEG
Procedure: A 5′ RNA leader sequence with 10-bases 5′-GGAAAAAGAU-3′ was purchased from IDT and used at a concentration of 5 μM. This sequence is the same used to obtain the crystal structure of the RNase P holoenzyme ([19]). The His-tagged P protein was immobilized on Ni-NTA biosensors at 0.05 mg/ml (3.4 μM). […] The steps performed on the assay and their periods were: P protein immobilization (400 s), wash (100 s), baseline […] (1000 rpm), compound association (800 s), compound dissociation (200 s) (500 rpm), baseline (100 s), 5′ leader association (200 s), 5′ leader dissociation (200 s) (1000 rpm). The assay was performed at 30°C. The compounds were used at 100 μM throughout. All assay steps were performed in 20 mM HEPES pH 7.4, 100 mM ammonium acetate, 10 mM MgCl2, 5% DMSO.
5 ′ RNA leader. (A) Experimental design of 5′ RNA leader binding hindrance experiments. Figures B-F are based on the analysis region depicted in panel A, where association and dissociation of the 5′ RNA leader to the P protein (TmP) is measured over time. P protein at 3.5 µM was immobilized on Ni-NTA biosensors for 300 s, while compounds were assayed at 100 µM and the […]
binding, in contrast with hematein (E) and purpurin (F).
(1 picture or pasted object on this page, not shown here)

[1] = molecular target: T2, RNase P holoenzyme from Thermotoga maritima (Thermotoga maritima, UniProt Q9X1H4); assay: Real-time fluorescence-based (FRET) RNase P activity assay with minihelix (Mh) substrate; format: biochemical; settings: for IC50: fluorescent Mh substrate 270 nM, holoenzyme 33 nM, 10% DMSO, 37°C, 400 mM AmOAc, 100 mM MgCl2
T2 construct: made in house
T2 sequence (Q9X1H4 1-117): T1 sequence (Q9X1H4 1-117)
In short: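 Reconstituted holoenzyme (P RNA:P protein 1:1.1) at 33 nM with 270 nM minihelix labelled Alexa Fluor 488/BHQ quencher, in buffer H (pH 7.4, 400 mM AmOAc, 100 mM MgCl2), 10% DMSO, 37°C. Cleavage followed as fluorescence increase (ex 485, em 535 nm); initial velocities from linear slopes.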

Structure (SMILES) | Hindrance of 5′ RNA leader binding to the P protein (P protein) | IC50 [1] | Hindrance of 5′ RNA leader binding to the P protein (P protein; listed as hematein) | Hindrance of 5′ RNA leader binding to the P protein (P protein; listed as purpurin) | Ki ([1]; competitive inhibition model, varying fluorescent Mh substrate)
O=C1C=CC(=O)c2c(O)cccc21 [Juglone, 5-hydroxy-1,4-naphthoquinone] | do not impede the leader binding | 12.8 ± 1.9 µM | – | – | –
O=C1C=C2CC3(O)COc4c(ccc(O)c4O)C3=C2C=C1O (stereo not drawn) [Hematein, 3,4,6a,10-tetrahydroxy-6a,7-dihydroindeno[2,1-c]chromen-9(6H)-one] | hinder the binding of the P protein | 4.5 ± 0.9 µM | displayed leader-binding hindrance | – | –
O=C1c2ccccc2C(=O)c2c(O)c(O)cc(O)c21 [Purpurin, 1,2,4-trihydroxyanthraquinone] | hinders the binding of the P protein to the 5′ RNA leader | 96.2 ± 21.7 µM | – | hinder the binding of the P protein; also recorded: interferes with the binding of the leader to the P protein | 1.9 ± 0.4 µM
